Experimental data published in patent US20150231109A1, “COMBINATIONS (CATECHINS AND METHOTREXATE) FOR USE IN THE TREATMENT OF MELANOMAS” (UNIVERSIDAD DE MURCIA, priority 2012, published 2015).

What was measured:
Caco-2 = assay: HPLC/MS/MS intracellular levels of MTX in Caco-2; type: cell-based; conditions: Caco-2, same MTX treatment (24 h, 1 μM)
MITF = MITF mRNA and protein expression (RT-PCR, western blot, immunofluorescence) in melanoma cell lines; type: cell-based; conditions: MTX 1 μM; mouse (B16/F10) and human (SK-MEL-28, G361, A375) cell lines
Description: D, Immunofluorescence of control or MTX-treated (3 h) 501 MEL cells using anti-MITF and DAPI.
(§1) mRNA extraction, cDNA synthesis, and conventional and qRT-PCR were performed under standard conditions. Primers were designed using Primer Express version 2.0 software (Applied Biosystems, Foster City, Calif.) and synthesized by Invitrogen (Barcelona, Spain).
(§2) Whole cell lysates were collected by adding SDS sample buffer. After extensive sonication, samples were boiled for 10 min and subjected to SDS-PAGE. Proteins were then transferred to nitrocellulose membranes and analyzed by immunoblotting (ECL Plus, GE Healthcare, Barcelona, Spain).
Confocal microscopy was carried out using a Leica TCS 4D confocal microscope (Wetzlar, Germany). For indirect immuno-fluorescence studies, preparation of the cells on glass slides were fixed with cold acetone for 5 min, and washed with PBS. The cells were incubated with 3% bovine serum albumin (BSA) for 20 min and then 2 h at room temperature with primary antibodies (diluted 1:200 in PBS containing 1% BSA) as described in each experiment. The cells were washed three times in PBS and incubated for 1 h at room temperature with Alexa Fluor Dyes (Invitrogen) as secondary antibodies. After 3 washes with PBS, the cells were incubated with 0.01% 4′-6-diamidino-2-phenylidene (DAPI; Sigma) in water for 5 min. […]

[1] = Toxicology in non-tumor inoculated C57BL/6 mice; type: in vivo, mouse
Description: FIGS. 4A-N. MTX and TMECG combination therapy is effective in vivo. A, A375 melanoma cells were included in a human reconstructed skin model and were treated with MTX (1 μM) and/or TMECG (10 μM) for 14 days. B, B16/F10 melanoma cells were injected subcutaneously into C57/B16 mice. Images show tumor size 17 days post-injection in control and treated mice. […] C, Luciferase imaging of control and MTX/TMECG-treated mice 12 days post-tumor cell injection. Beetle luciferin (120 mg/kg of mouse) was injected intraperitoneally. The values (means±s.d.) are representative of three independent experiments. *P=0.007; **P=0.002. D, Bioluminescent imaging of livers at 14 days post-intrasplenic injection of B16-F10-luc-G5 cells from untreated and MTX/TMECG-treated mice are shown. E, Quantification of macrometastases (0-10, 10-25 or >25) after treatment with vehicle (control), MTX (1 mg/kg/day), and/or TMECG (50 mg/kg/day). F, Photomicrograph of H&E-stained, 4 μm formalin-fixed, paraffin-embedded liver sections from control (DMSO) and MTX/TMECG-treated mice (1 and 50 mg/kg/day, respectively) (5× magnification). G, MTX activation of MITF and tyrosinase activates the melanoma-specific antifolate activity of TMECG, leading to depletion of cellular dTTP and apoptosis. H, Sections stained with hematoxylin and eosin show the effect of MTX/TMECG on B16/F10 primary splenic tumors. Xenograft tumors treated with DMSO (vehicle) or MTX/TMECG (1 mg/kg/day and 50 mg/kg/day, respectively) over 14-days. […] Representative images taken from two independent experiments (n=5 for each experiment). Scale bar=200 μm and is applicable to both panels. I, B16/F10 melanoma cells, expressing a luciferase reporter, were injected subcutaneously to mice. Mice were divided in two groups (n=7) and treated with vehicle (DMSO) or MTX/TMECG (1 mg/kg/day and 10 mg/kg/day, respectively) over 21-days. Then, tumors were pooled and dissociated. B16/F10 cells extracted from tumors were examined for their sensitivity to the MTX/TMECG combination (1 μM and 10 μM, respectively) using quantification of the luminescence signal (left panel). J, The histogram represents the number of B16/F10-luc2 cells remaining after 3 days of MTX/TMECG treatment with respect to vehicle treated controls (100%). […] K, The morphology of tumor dissociated B16/F10-luc2 cells before and after of MTX/TMECG treatment. Scale bar refers to all panels. L, Histograms represent the number of copies of TYR mRNA for every 1×10^3 copies of β-actin±SD of three independent experiments. […]
To explore the toxicity of TMECG and MTX, these agents (at indicated concentrations) were administrated intradermally to the back of non-tumor inoculated female C57BL/6 mice (n=10), and body weight monitored every other day. […]

[2] = Pharmacokinetic studies in mice plasma; type: in vivo; conditions: mouse, ip, male C57BL/6 mice, intra-peritoneal MTX 50 mg/kg alone or with TMECG 50 mg/kg
Description: Pharmacokinetic studies were performed in male C57BL/6 mice after intra-peritoneal injection of MTX (50 mg/kg) and/or TMECG (50 mg/kg). Animals were anesthetized with CO2, and whole blood samples (˜0.5 mL) were collected via cardiac puncture. Samples for drug quantification were collected from different animals (in triplicate) at 5, 15, and 30 min and at 1, 2, 4, and 6 hr post-dose. Whole blood samples were transferred to lithium heparin blood collection tubes, and then centrifuged at 10,000 rpm for 10 min at 4° C. After plasma deproteinization with 5% trichloroacetic acid (TCA), MTX and TMECG plasma concentrations were calculated by HPLC. Pharmacokinetic parameters were estimated using the WinNonlin software package (WinNonlin Professional version 5.1., Pharsight Corporation, CA). WinNonlin model 200 was used for the non-compartmental analysis of the concentration-time data. The area under the plasma concentration-time curve (AUClast) from time 0 to the last point (tlast) with measurable concentration (Clast) was estimated using a linear trapezoidal approximation (AUClast). The elimination half-life (t1/2) was calculated as ln2/kel, where kel (elimination rate constant) was estimated using least squares regression analysis of the concentration-time data obtained during the terminal log-linear elimination phase. The maximum plasma concentrations (Cmax) were estimated directly from the data, with tmax being defined as the time of the first occurrence of Cmax.

TYR = TYR mRNA and protein expression in melanoma cell lines; type: cell-based, human; conditions: MTX 1 μM; SK-MEL-28 and multiple melanoma cell lines
Description: H, Semiquantitative RT PCR of TYR, TYRP1, Pmel17, MART1, and Rab27a mRNA. SK-MEL-28 and siMITF-SK-MEL-28 cells were treated for 5 h with 1 μM MTX. mRNA levels are presented relative to β-actin mRNA and compared to their expression levels in untreated cells (1-fold).
as §1, §2

intracellular levels of MTX (Caco-2): 0.8 ± 0.3 pmol/106 cells
AUC ([2]; read-out: MTX parameters AUC): 32000 ng·h/mL
Cmax ([2]; read-out: MTX parameters Cmax): 24600 ng/mL
Tmax ([2]; read-out: MTX parameters Tmax): 0.5 h
half-life ([2]; read-out: MTX parameters t1/2 (converted)): 1.77 h
Compound: CN(Cc1cnc2nc(N)nc(N)c2n1)c1ccc(C(=O)N[C@@H](CCC(=O)O)C(=O)O)cc1 [MTX, methotrexate]
MITF mRNA and protein (MITF): increased
mouse body weight ([1]; MTX 10 mg/kg/day): induced some weight loss
mouse body weight ([1]; MTX alone 1 mg/Kg/day): no effect
mRNA expression of MITF differentiation target TYR and TYR protein expression (TYR): increased
